# Measurements: US8883737B2, “Methods of treating cancer” (Endocyte, Inc., priority 2010, dated 2014)
# Several values for one entry are separate records, joined by “and”; a condition that tells them apart may be missing. Identical values can stand only once. Like-named read-outs stand apart in the source and are kept apart here.
# Tests used:
# [1] = system: KB tumors; experiment: In vivo antitumor experiments, s.c. KB tumors; parameters: species or system nu/nu mice
# Protocol: (§1) Four to six week-old female nu/nu mice (Charles River, Wilmington, Mass.) or six to seven week-old female Balb/c mice (Harlan Sprague Dawley, Inc., Indianapolis, Ind.) or four to six week-old female DBA mice (Harlan Sprague Dawley, Inc., Indianapolis, Ind.) were maintained on a standard 12 h light-dark cycle and fed ad libitum with folate-deficient chow (Harlan diet #TD00434, Harlan Teklad, Madison, Wis.) for the duration of the experiment. FR-positive human nasopharyngeal KB cells, human ovarian IGR-OV1 cells, human ovarian OV90 cells and syngeneic mouse lymphocytic leukemia L1210 cells were grown continuously as a monolayer, using folate-free RPMI medium (FFRPMI) containing 10% heat-inactivated fetal calf serum (HIFCS) at 37° C. in a 5% CO2/95% air-humidified atmosphere with no antibiotics. Syngeneic FR-positive Madison 109 (M109) lung carcinoma cells were generated from M109 tumors and cultured for a few days in FFRPMI containing 10% HIFCS for a few days before implantation in mice. KB cells (1×10^6 per nu/nu mouse), M109 cells (1×10^6 per Balb/c mouse), IGR-OV1 cells (4×10^6 per nu/nu mouse) or OV90 cells (1×10^6 per nu/nu mouse) or L1210 cells (2×10^5 per DBA mouse) in 100 μL were injected in the subcutis of the dorsal medial area. Mice were divided into groups of five, and test articles were freshly prepared and injected through the lateral tail vein under sterile conditions in a volume of 200 μL of phosphate-buffered saline (PBS). Intravenous (i.v.) treatments were typically initiated when the tumors were approximately 100-200 mm^3 in volume. The mice in the control groups received no treatment. Growth of each s.c. tumor was followed by measuring the tumor three times per week during treatment and twice per week thereafter until a volume of 1500 mm^3 was reached. Tumors were measured in two perpendicular directions using Vernier calipers, and their volumes were calculated as 0.5×L×W^2, where L=measurement of longest axis in mm and W=measurement of axis perpendicular to L in mm. As a general measure of toxicity, changes in body weights were determined on the same schedule as tumor volume measurements. Survival of animals was monitored daily. Animals that were moribund (or unable to reach food or water) were euthanized by CO2 asphyxiation. All in vivo studies were performed in accordance with the American Accreditation Association of Laboratory Animal Care guidelines.
# (§2) For individual tumors, a partial response (PR) was defined as volume regression >50% but with measurable tumor (>2 mm^3) remaining at all times. Complete response (CR) was defined as a disappearance of measurable tumor mass (<2 mm^3) at some point until the end of the study. A cure was defined as a CR without tumor re-growth within the study time frame.
# [2] = system: KB tumor cells; experiment: Cell growth inhibition (3H-thymidine), KB tumor cells; format: cell-based; details: Homo sapiens, FIG. 31, read-out: In vitro cytotoxicity IC50
# Protocol: Exponentially growing KB or J6456 cells were seeded in 24-well plates 24 h before treatment with drugs. […] Cells treated with vindesine, DAVLBH or doxorubicin alone were treated for 72 h. A total of five drug concentrations for each drug plus a drug-free control were evaluated. Cells were then treated with fresh medium containing ^3H-thymidine for 2 h at 37° C. Cells were further washed with PBS and treated with ice-cold 5% trichloroacetic acid. After 15 min, the trichloroacetic acid was aspirated and the cells solubilized by the addition of 0.25 N sodium hydroxide for 15 min at room temperature. Each solubilized sample was transferred to scintillation vials containing Ecolume scintillation cocktail and counted in a liquid scintillation counter. […]
# [3] = system: M109 tumors; experiment: In vivo antitumor experiments, s.c. M109 tumors; parameters: species or system Balb/c mice; details: five animals per group
# Protocol: as §1, §2
# [4] = system: IGR-OV1 cells; details: FIG. 53, EC145 with or without Lapatinib
# [5] = system: OV90 cells; details: FIG. 53, EC145 with or without Lapatinib
# [6] = system: OV90 cells; experiment: cells; details: Homo sapiens, OV-90
# [7] = system: IGR-OV1 cells; experiment: cells; details: Homo sapiens, IGROV-1
# [8] = system: RAW cells; experiment: Cell growth inhibition, RAW cells; format: cell-based; details: FIG. 49
# [9] = FIG. 14, M109 tumors 86-149 mm^3, EC145 alone 2 μmol/kg/injection TIW 2 weeks (1 μmol/kg in combination), Gemcitabine 40 mg/kg BIW 5 doses
# [10] = FIG. 16, M109 tumors 99-164 mm^3, EC145 alone 2 μmol/kg/injection TIW 2 weeks (1 μmol/kg in combination), Tarceva 100 mg/kg qd5 2 weeks
# [11] = FIG. 10, KB tumors 114-177 mm^3, five animals per group, EC145 1 μmol/kg/injection TIW 2 weeks, Irinotecan 40 mg/kg BIW 2 weeks
# [12] = FIG. 12, KB tumors 108-222 mm^3, five animals per group, EC145 1 μmol/kg/injection TIW 2 weeks, Avastin 5 mg/kg BIW 2 weeks
molecule,measurement,setting,value
"N.N.O=C([O-])C1(C(=O)[O-])CCC1.[Pt+2] [Carboplatin, carboplatin]",partial responses,"[1]; FIG. 1, KB tumors 109-188 mm^3, five animals per group, EC145 1 μmol/kg/injection TIW 2 weeks, Carboplatin 50 mg/kg TIW 1 week",3
"N.N.[Cl][Pt][Cl] [Cisplatin, cisplatin]",partial responses,"[1]; mouse, in vivo",2
"CC[C@]1(O)C[C@@H]2CN(CCc3c([nH]c4ccccc34)[C@@](C(=O)OC)(c3cc4c(cc3OC)N(C)[C@H]3[C@@](O)(C(=O)NN)[C@H](O)[C@]5(CC)C=CCN6CC[C@]43[C@@H]65)C2)C1 [DAVLBH, desacetylvinblastine hydrazide]",effect of unconjugated DAVLBH on Doxil activity,"[1]; FIG. 27, DAVLBH 0.75 μmol/kg/injection TIW 2 weeks + DOXIL 5 mg/kg BIW 2 weeks",antagonizes Doxil activity
"COc1cccc2c1C(=O)c1c(O)c3c(c(O)c1C2=O)C[C@@](O)(C(=O)CO)C[C@@H]3O[C@H]1C[C@H](N)[C@H](O)[C@H](C)O1 [Doxorubicin, doxorubicin]",IC50,[2],34 nM
CC[C@]1(O)C[C@H]2CN(CCc3c([nH]c4ccccc34)[C@@](C(=O)OC)(c3cc4c(cc3OC)N(C)[C@H]3[C@@](O)(C(=O)NNC(=O)OCCSSC[C@H](NC(=O)[C@H](CC(=O)O)NC(=O)[C@H](CC(=O)O)NC(=O)[C@H](CCCNC(=N)N)NC(=O)[C@H](CC(=O)O)NC(=O)CC[C@H](NC(=O)c5ccc(NCc6cnc7nc(N)[nH]c(=O)c7n6)cc5)C(=O)O)C(=O)O)[C@H](O)[C@]5(CC)C=CCN6CC[C@]43[C@@H]65)C2)C1 [EC145],Cures,[3]; [9],2
same,complete responses,[3]; [9],0
same,partial responses,[3]; [9],0
same,Cures,[3]; [10],0
same,complete responses,[3]; [10],0
same,partial responses,[3]; [10],0
same,Cures,"[3]; FIG. 40, M109 tumors, EC145 1 μmol/kg/injection TIW 2 weeks, DOXIL 4 mg/kg BIW 2 weeks",3/5 and 3
same,IC50,[4],3.58 nM
same,complete responses,"[1]; mouse, in vivo",0
same,IC50,[5],329 nM
"Nc1ccn([C@@H]2O[C@H](CO)[C@@H](O)C2(F)F)c(=O)n1 [Gemcitabine, gemcitabine]",Cures,[3]; [9],no
same,complete responses,[3]; [9],no
same,partial responses,[3]; [9],no
"CCc1c2c(nc3ccc(OC(=O)N4CCC(N5CCCCC5)CC4)cc13)-c1cc3c(c(=O)n1C2)COC(=O)[C@]3(O)CC [Irinotecan, irinotecan]",Cures,[1]; [11],no
same,complete responses,[1]; [11],no
same,partial responses,[1]; [11],no
"CS(=O)(=O)CCNCc1ccc(-c2ccc3ncnc(Nc4ccc(OCc5cccc(F)c5)c(Cl)c4)c3c2)o1 [Lapatinib, lapatinib]",IC50,[6],2460 nM
same,IC50,[7],1750 nM
same,IC50,[8],2850 nM
"C#Cc1cccc(Nc2ncnc3cc(OCCOC)c(OCCOC)cc23)c1 [Tarceva, erlotinib]",Cures,[3]; [10],no
same,complete responses,[3]; [10],no
same,partial responses,[3]; [10],no
"CC[C@@]1(O)C(=O)OCc2c1cc1n(c2=O)Cc2cc3c(CN(C)C)c(O)ccc3nc2-1 [Topotecan, topotecan]",Cures,"[1]; FIG. 5, KB tumors 144-204 mm^3, five animals per group, EC145 1 μmol/kg/injection TIW 2 weeks, Topotecan 5 mg/kg TIW 2 weeks",no
CC[C@]1(O)C[C@@H]2CN(CCc3c([nH]c4ccccc34)[C@@](C(=O)OC)(c3cc4c(cc3OC)N(C)[C@H]3[C@@](O)(C(N)=O)[C@H](O)[C@]5(CC)C=CCN6CC[C@]43[C@@H]65)C2)C1 [vindesine],effect of unconjugated vindesine on Doxil activity,"[1]; FIG. 25/26, vindesine 1 mg/kg/injection TIW 2 weeks + DOXIL 5 mg/kg BIW 2 weeks",antagonizes Doxil activity
bevacizumab [Avastin],Cures,[1]; [12],no
same,complete responses,[1]; [12],no
same,partial responses,[1]; [12],no
